Test system: SW480
Experiment: drug sensitivity score (DSS, integrated dose-response area); higher = more sensitive (stronger viability reduction); extreme values may be limits of the assay
Outline: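 SW480 cells stably carrying doxycycline-inducible control or SND1-targeting shRNA were treated with 0.1 µg/mL doxycycline for 7 days. Cells were then seeded at 1000 per well into 384-well plates containing 525 commercially available small-molecule inhibitors at five concentrations, and viability was measured with CellTiter-Glo after 72 h. The drug sensitivity score integrates the area under a fitted non-linear dose–response model.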

[1] = shRNA: SND1 shRNA1 (SND1 silenced)
[2] = shRNA: SND1 shRNA2 (SND1 silenced)
[3] = shRNA: control shRNA (non-targeting)

Compound	drug sensitivity score [1] [DSS]	drug sensitivity score [2] [DSS]	drug sensitivity score [3] [DSS]
C/C(=C\c1csc(C)n1)[C@@H]1C[C@@H]2O[C@]2(C)CCC[C@H](C)[C@H](O)[C@@H](C)C(=O)C(C)(C)[C@@H](O)CC(=O)O1 [Patupilone]	17.9	18.3	18.4
Cc1ccc(Nc2nccc(N(C)c3ccc4c(C)n(C)nc4c3)n2)cc1S(N)(=O)=O [Pazopanib]	0.5	7.1	1.8
CCOc1cc2ncc(C#N)c(Nc3ccc(F)c(Cl)c3)c2cc1NC(=O)/C=C/CN(C)C [Pelitinib]	7.8	8.6	12.3
Nc1nc2[nH]cc(CCc3ccc(C(=O)N[C@@H](CCC(=O)O)C(=O)O)cc3)c2c(=O)[nH]1 [Pemetrexed]	9.9	–	6.5
OC[C@H]1O[C@@H](n2cnc3c2N=CNC[C@H]3O)C[C@@H]1O [Pentostatin]	1.6	3.5	2.9
CCCCCCCCCCCCCCCCCCOP(=O)([O-])OC1CC[N+](C)(C)CC1 [Perifosine]	2.3	–	3.7
NS(=O)(=O)OC[C@@H]1C[C@@H](n2ccc3c(N[C@H]4CCc5ccccc54)ncnc32)C[C@@H]1O [Pevonedistat]	4.5	–	8.2
FC(F)(F)c1ccc(CNc2ccc(Cc3c[nH]c4ncc(Cl)cc34)cn2)cn1 [Pexidartinib]	0.3	0.8	0.7
COc1ccc(Cl)c(Nc2nc3ccccc3nc2NS(=O)(=O)c2cccc(NC(=O)C(C)(C)N)c2)c1 [Pilaralisib]	0.8	0.7	0.8
CC[C@@H]1C(=O)OC[C@@H]1Cc1cncn1C [Pilocarpine]	0.6	0	0.2
O=C(NC[C@H](O)CO)c1ccncc1Nc1ccc(I)cc1F [Pimasertib]	26.3	16.5	7.4
CC(C)N(C[C@H]1O[C@@H](n2cnc3c(N)ncnc32)[C@H](O)[C@@H]1O)[C@H]1C[C@@H](CCc2nc3cc(C(C)(C)C)ccc3[nH]2)C1 [Pinometostat]	0	2.6	0
O=C(CCBr)N1CCN(C(=O)CCBr)CC1 [Pipobroman]	0.1	1.5	0.1
NCCNc1ccc(NCCN)c2c1C(=O)c1ccncc1C2=O [Pixantrone]	0	0	0
c1cc(CN2CCCNCCNCCCNCC2)ccc1CN1CCCNCCNCCCNCC1 [Plerixafor]	0	–	0
CO[C@H](C(=O)[C@@H](O)[C@@H](C)O)[C@@H]1Cc2cc3cc(O[C@H]4C[C@@H](O[C@@H]5C[C@@H](O)[C@H](O)[C@@H](C)O5)[C@H](O)[C@@H](C)O4)c(C)c(O)c3c(O)c2C(=O)[C@H]1O[C@H]1C[C@@H](O[C@@H]2C[C@@H](O)[C@@H](O[C@@H]3C[C@](C)(O)[C@H](O)[C@@H](C)O3)[C@@H](C)O2)[C@H](O)[C@@H](C)O1 [Plicamycin]	1.9	0	3.5
Nc1cccc2c1C(=O)N(C1CCC(=O)NC1=O)C2=O (centres undefined) [Pomalidomide]	0	0	0
Cc1ccc(C(=O)Nc2ccc(CN3CCN(C)CC3)c(C(F)(F)F)c2)cc1C#Cc1cnc2cccnn12 [Ponatinib]	5.9	4.8	4.4
C=CC(=O)N1CCC(Oc2cc3c(Nc4ccc(Cl)c(Cl)c4F)ncnc3cc2OC)CC1 [Poziotinib]	0.6	4.1	0.2
CCCCc1nc2cc(/C=C/C(=O)NO)ccc2n1CCN(CC)CC [Pracinostat]	21.1	17.2	19.3
CC[C@H](C)C(=O)O[C@H]1C[C@H](O)C=C2C=C[C@H](C)[C@H](CC[C@@H](O)C[C@@H](O)CC(=O)O)[C@H]21 [Pravastatin]	0	–	3.1
C[C@]12C=CC(=O)C=C1CC[C@@H]1[C@@H]2[C@@H](O)C[C@@]2(C)[C@H]1CC[C@]2(O)C(=O)CO [Prednisolone]	0	0	0
C[C@]12C=CC(=O)C=C1CC[C@@H]1[C@@H]2C(=O)C[C@@]2(C)[C@H]1CC[C@]2(O)C(=O)CO [Prednisone]	0.5	0.1	2.9
COc1cccc(OCCCN)c1-c1cc(Nc2cnc(C#N)cn2)n[nH]1 [Prexasertib]	29.1	26.2	28.1

Compound	drug sensitivity score [1] [DSS]	drug sensitivity score [2] [DSS]	drug sensitivity score [3] [DSS]
CNNCc1ccc(C(=O)NC(C)C)cc1 [Procarbazine]	0	0	0
Cc1cc(-c2ncc(-c3cccnc3)cc2/C=C/c2ccccc2)cnc1-c1cccnc1 [Pyridoclax]	4.1	2.7	0.2
Cn1cc(CNCC2CCN(c3ncc(C(=O)NO)cn3)CC2)c2ccccc21 [Quisinostat]	14.9	14.6	13.6
CC(C)(C)c1cc(NC(=O)Nc2ccc(-c3cn4c(n3)sc3cc(OCCN5CCOCC5)ccc34)cc2)no1 [Quizartinib]	0	0	0
Cn1c(Nc2ccc(C(F)(F)F)cc2)nc2cc(Oc3ccnc(-c4ncc(C(F)(F)F)[nH]4)c3)ccc21 [RAF265]	0	1.8	2
CNC(=O)c1ccc(N2C(=S)N(c3ccc(C#N)c(C(F)(F)F)c3)C(=O)C23CCC3)cc1F [RD162]	0.3	2.7	0.8
CCNC(=O)Nc1ccc(-c2nc3c(c(N4CCOC[C@@H]4C)n2)CCN(C2COC2)C3)cc1 [RG-7603]	0.7	1.3	0.7
Nc1cc(F)ccc1NC(=O)/C=C/c1cnn(C/C=C/c2ccccc2)c1 [RGFP966]	6.3	6.3	6.8
Cc1cnc(NC(=O)Nc2cc(Br)c(C)cc2OC[C@@H]2CNCCO2)cn1 [Rabusertib]	1.8	1.4	2
C[C@@H]1C[C@H]2O[C@@H]2/C=C\C=C\C(=O)Cc2c(Cl)c(O)cc(O)c2C(=O)O1 [Radicicol]	13.4	12.1	12.3
CC(C)(C)Cn1c(N)nc2ccc(-c3[nH]c(C(C)(C)C)nc3-c3ccc(F)cc3)nc21 [Ralimetinib]	1.7	0	0.2
O=C(c1ccc(OCCN2CCCCC2)cc1)c1c(-c2ccc(O)cc2)sc2cc(O)ccc12 [Raloxifene]	6.6	4.1	7.2
Cc1nc(=O)c2cc(CN(C)c3ccc(C(=O)N[C@@H](CCC(=O)O)C(=O)O)s3)ccc2[nH]1 [Raltitrexed]	5.2	0	4.8
CNC(=O)c1cc(Oc2ccc(NC(=O)Nc3cc(C(C)(C)C)nn3-c3ccc4ncccc4c3)c(F)c2)ccn1 [Rebastinib]	0	0	0
COc1cc(F)c(F)c(Nc2ccc(I)cc2F)c1NS(=O)(=O)C1(C[C@H](O)CO)CC1 [Refametinib]	26.8	18	11.1
CNC(=O)c1cc(Oc2ccc(NC(=O)Nc3ccc(Cl)c(C(F)(F)F)c3)c(F)c2)ccn1 [Regorafenib]	7.8	7.9	5.1
CN(C)Cc1ccc(S(=O)(=O)n2ccc(/C=C/C(=O)NO)c2)cc1 [Resminostat]	8	8.1	6.1
CN(C)C(=O)c1cc2cnc(Nc3ccc(N4CCNCC4)cn3)nc2n1C1CCCC1 [Ribociclib]	3.8	–	4.9
CO[C@H]1C[C@@H]2CC[C@@H](C)[C@@](O)(O2)C(=O)C(=O)N2CCCC[C@H]2C(=O)O[C@H]([C@H](C)C[C@@H]2CC[C@@H](OP(C)(C)=O)[C@H](OC)C2)CC(=O)[C@H](C)/C=C(\C)[C@@H](O)[C@@H](OC)C(=O)[C@H](C)C[C@H](C)/C=C/C=C/C=C/1C [Ridaforolimus]	5.9	–	2.3
COc1cc(OC)c(/C=C/S(=O)(=O)Cc2ccc(OC)c(NCC(=O)O)c2)c(OC)c1 [Rigosertib]	15.1	18.2	16.4
C=CC(=O)Nc1cccc(Nc2nc(Nc3ccc(N4CCN(C(C)=O)CC4)cc3OC)ncc2C(F)(F)F)c1 [Rociletinib]	7.2	3.5	7.5
O=C(CCCCCCNC(=O)c1cnc(N(c2ccccc2)c2ccccc2)nc1)NO [Rocilinostat]	4	7	8.4
CS(=O)(=O)c1ccc(C2=C(c3ccccc3)C(=O)OC2)cc1 [Rofecoxib]	0	0	0
